These results are taken from ChEMBL document CHEMBL3525933 (Drug Metab Dispos, 2012).

For data set [1], the system named is Plasma. Kind of data set: Drug metabolism in Wistar rat plasma assessed as retention time by HPLC-DAD analysis. In kind it is ADME, cell-free.
For data set [2], the system named is Plasma. Kind of data set: Drug recovery in Wistar rat plasma at 2000 ng/ml by HPLC-DAD analysis. In kind it is ADME, cell-free.

In the case of `O=c1c(-c2ccc(O)cc2)coc2cc(O[C@@H]3O[C@H](CO)[C@@H](O)[C@H](O)[C@H]3O)ccc12` [DAIDZIN], the Retention_time with Plasma [1] is given as 9.5 min. In the data set with Plasma [2], this compound returned a Drug recovery of 85.1%.
